Test results taken from patent US12269803B2, “Krüppel-like factor 15 (KLF15) small molecule agonists in kidney disease” (United States Government as represented by the Department …, priority 2020, dated 2025).
In brackets after ≈: the same amount, converted by molar mass. Entries after “also recorded” stand apart in the source; their conditions may differ.

Experiments:
[1] = test system: Caco-2 cells (clone C2BBe1); test: Caco-2 permeability; type: in vitro ADME; conditions: for Papp AVG / Papp R1 / Recovery: 5 μM, 120 minutes; for Efflux Ratio / Significant Efflux: Caco-2; for Absorption Potential Classification: Caco-2, from Papp (A-to-B)
Experimental: Caco-2 cells (clone C2BBe1) were obtained from American Type Culture Collection (Manassas, VA). Cell monolayers were grown to confluence on collagen-coated, microporous membranes in 12-well assay plates. Details of the plates and their certification are shown below. The permeability assay buffer was Hanks' balanced salt solution containing 10 mM HEPES and 15 mM glucose at a pH of 7.4. The buffer in the receiver chamber also contained 1% bovine serum albumin. The dosing solution concentration was 5 μM of lead compound in the assay buffer. Cell monolayers were dosed on the apical side (A-to-B) or basolateral side (B-to-A) and incubated at 37° C. with 5% CO2 in a humidified incubator. Samples were taken from the donor and receiver chambers at 120 minutes. Each determination was performed in duplicate. The flux of lucifer yellow was also measured post-experimentally for each monolayer to ensure no damage was inflicted to the cell monolayers during the flux period. […] The apparent permeability (Papp) and percent recovery were calculated and provided.

LPS-treated mice = test: LPS-induced albuminuria murine model; type: in vivo; conditions: C57BL/6 mice, LPS 10 μg/g, subcutaneous minipump 3.5 μg/day for 48 hours, vs DMSO
Experimental: Referring to FIG. 10D, C57BL/6 mice were treated with lipopolysaccharide (LPS) at dose of 10 μg/g in two divided doses 24 hours apart intraperitoneally to induce podocyte injury and albuminuria.

KLF15 promoter [2] = test: KLF15 reporter human podocyte assay (HTS, dose-response, primary screening); type: cell-based; conditions: for KLF15 reporter activity, primary screening assay: 1 μM, 24 hr, vs DMSO; for maximal KLF15 reporter activity: dose escalation, at similar concentrations to DEX
Experimental: A stable reporter assay directed at KLF15 promoter region (4.3 kb region) was generated in human podocytes, a fragment of human KLF15 promoter upstream of the start codon, by amplifying and subcloning it into the firefly luciferase reporter plasmid (co-transfection with renilla to serve as internal controls). KLF15 promoter activity is measured as a ratio of luciferase to renilla activity. Using this reporter cell line, a cell-based HTS assay was developed using recently reported cell-seeding methodology specific to cultured podocytes (16).

human podocytes [3] = test: Podocyte survival (Renilla, cell viability) after LPS treatment; type: cell-based; conditions: LPS-treated human podocytes
Experimental: (§1) FIG. 10A-D show representative data illustrating the dose-response curve and EC50 (FIG. 10A), KLF15 reporter activity (FIG. 10B), and Renilla activity (cell viability) (FIG. 10C) in LPS-treated HP, and the therapeutic efficacy in abrogating albuminuria (biomarker of kidney disease) in LPS-treated mice (FIG. 10D).
(§2) After the synthesis of these novel analogues, a primary screening assay was conducted.

KLF15 promoter [4] = test: KLF15 promoter activity in human podocytes, KLF15 agonist combined with dexamethasone; type: cell-based; conditions: for KLF15 promoter activity, single agent: alone (DEX 1 μM), vs DMSO-treated human podocytes; for KLF15 promoter activity, combination with DEX: vs DEX 1 μM
[5] = Stability in pH 7.4 phosphate buffer; type: physicochemical; conditions: 37° C., 1 μM
Experimental: Studies were carried out in pH 7.4 phosphate buffer. The buffer was prepared by combining 50 mL of 0.2 M KH2PO4 with 150 mL of H2O, and then adjusting to pH 7.4 with 10 N NaOH. The buffer was adjusted to pH 7.4 prior to initiating the experiments. […] Aliquots of the DMSO solutions were dosed into 0.5 mL of matrix, which had been pre-warmed to 37° C., at a final lead compound concentration of 1 μM. Individual tubes were dosed for each timepoint. The vials were kept in a benchtop Thermomixer for the duration of the experiment. At each time point (0, 30, 60, and 120 minutes), an equal volume of acetonitrile was added to the appropriate tubes. Samples were stored at 4° C. until the end of the experiment. After the final time point was sampled, the plate was mixed and then centrifuged at 3,000 rpm for 10 minutes. Aliquots of the supernatant were removed, diluted 1:1 into distilled water, and analyzed by LC-MS/MS.

[6] = Equilibrium solubility in aqueous buffers; type: physicochemical
Experimental: The pH 2.0 buffer was prepared by combining 50 mL of 0.2 M KCl with 150 mL of H2O, and then adjusting to pH 2.0 with 10 N HCl. […] The pH 7.4 buffer was prepared by combining 50 mL of 0.2 M KH2PO4 with 150 mL of H2O, and then adjusting to pH 7.4 with 10 N NaOH. At least 0.3 mg of powder for each lead compound was combined with 1 mL of each buffer to make a ≥0.3 mg/mL mixture. These samples were shaken on a Thermomixer® overnight at room temperature. The samples were then centrifuged for 10 minutes at 14,000 rpm. The supernatant was sampled and diluted in duplicate 10-, 100-, 1,000-, and 10,000-fold into a mixture of 1:1 buffer:acetonitrile (ACN) prior to analysis. […] Standard concentrations ranged from 1.0 μM to 0.3 nM.

KLF15 reporter = KLF15 reporter activity in LPS-treated human podocytes (podocyte stress model); type: cell-based
Experimental: as §1, §2

human podocytes [7] = test: Toxicity to human podocytes in primary screening assay (Renilla, cell viability); type: cell-based; conditions: 1 μM, 24 hr
Experimental: as §2

human liver microsomes = test: Stability in human liver microsomes
Experimental: Mixed-gender human liver microsomes (Lot #1010420) were purchased from XenoTech. The reaction mixture, minus NADPH, was prepared as described below. […] The control compound, testosterone, was run simultaneously with the lead compounds in a separate reaction. The reaction mixture (without cofactor) was equilibrated in a shaking water bath at 37° C. for 3 minutes. The reaction was initiated by the addition of the cofactor, and the mixture was incubated in a shaking water bath at 37° C. Aliquots (100 μL) were withdrawn at 0, 10, 20, 30, and 60 minutes. Each lead compound and testosterone samples were immediately combined with 400 μL of ice-cold 50/50 acetonitrile (ACN)/H2O containing 0.1% formic acid and internal standard to terminate the reaction. The samples were then mixed and centrifuged to precipitate proteins. All samples were assayed by LC-MS/MS using electrospray ionization. The peak area response ratio (PARR) to internal standard was compared to the PARR at time 0 to determine the percent remaining at each time point. Half-lives and clearance were calculated using GraphPad software, fitting to a single-phase exponential decay equation.

[8] = pH 2, room temperature overnight
[9] = pH 4, room temperature overnight
[10] = pH 7.4, room temperature overnight
[11] = human liver microsomes, 1 μM, 37° C.

SMILES | Papp AVG ([1]; A-to-B) | Papp R1 ([1]; A-to-B) | Recovery ([1]; A-to-B) | Papp AVG ([1]; B-to-A) | Papp R1 ([1]; B-to-A) | Recovery ([1]; B-to-A) | Efflux Ratio [1] | Significant Efflux [1] | Absorption Potential Classification [1] | albuminuria (LPS-treated mice) | KLF15 reporter activity, primary screening assay (KLF15 promoter [2]) | maximal KLF15 reporter activity (KLF15 promoter [2]) | podocyte survival after LPS treatment (human podocytes [3]) | KLF15 promoter activity, single agent (KLF15 promoter [4]) | KLF15 promoter activity, combination with DEX (KLF15 promoter [4]; compound 0.5 μM + DEX 0.5 μM) | Percent Remaining 0 min [5] | Percent Remaining 30 min [5] | Percent Remaining 60 min [5] | KLF15 reporter activity after LPS treatment (KLF15 reporter) | toxicity to human podocytes (human podocytes [7]) | also measured
CSc1ccc(NC(=O)Nc2ccc(C)nc2)cc1 [BT503] | 10.7 10^−6 cm/s | 13.1 10^−6 cm/s | 59.7% | 9.7 10^−6 cm/s | 9.06 10^−6 cm/s | 69% | 0.909 | No (Significant Efflux: ER ≥ 2.0 and Papp (B-to-A) ≥ 1.0 × 10^−6 cm/s) | High (Papp (A-to-B) ≥ 1.0 × 10^−6 cm/s: High) | significantly reduced albuminuria | significantly induced KLF15 reporter activity | higher maximal KLF15 reporter activity | improved; also recorded: improve podocyte survival | significantly induced KLF15 promoter activity | synergistic effect | 100 | 90.6 | 87.6 | improved KLF15 reporter activity | no observed toxicity | EC50 (KLF15 promoter [2]; dose-response curve, human podocytes, luciferase/renilla): ~7.1 nM; KLF15 promoter activity, combination with DEX (KLF15 promoter [4]; compound 10 nM + DEX 0.5 μM): synergistic effect; KLF15 promoter activity, combination with DEX (KLF15 promoter [4]; compound 100 nM + DEX 0.5 μM): synergistic effect; Percent Remaining 120 min [5]: 80.5; Solubility AVG [6, 8]: 343 µM (≈ 93.8 µg/mL); Solubility R1 [6, 8]: 332 µM (≈ 90.8 µg/mL); Solubility AVG [6, 9]: 17.3 µM (≈ 4.73 µg/mL); Solubility R1 [6, 9]: 17.4 µM (≈ 4.76 µg/mL); Solubility AVG [6, 10]: 34.5 µM (≈ 9.43 µg/mL); Solubility R1 [6, 10]: 31.6 µM (≈ 8.64 µg/mL); Half-Life (human liver microsomes; [11]): 13 min; Percent Remaining 0 min (human liver microsomes; [11]): 100; Percent Remaining 10 min (human liver microsomes; [11]): 60.1; Percent Remaining 20 min (human liver microsomes; [11]): 35.3; Percent Remaining 30 min (human liver microsomes; [11]): 18.5; Percent Remaining 60 min (human liver microsomes; [11]): 3.3; CLint (intrinsic clearance) (human liver microsomes; human liver microsomes, Clint = k/P): 0.107 mL/min/mg protein
CSc1ccc(NC(=O)Nc2ccc(B3OC(C)(C)C(C)(C)O3)cc2)cc1 [BT412] |  |  |  |  |  |  |  |  |  |  | significantly induced KLF15 reporter activity | higher maximal KLF15 reporter activity | improved; also recorded: improve podocyte survival |  |  |  |  |  | improved KLF15 reporter activity | no observed toxicity | 
CSc1ccc(-c2nc(-c3ccc(O)cc3)no2)cc1 [BT514] |  |  |  |  |  |  |  |  |  |  | significantly induced KLF15 reporter activity |  | improved; also recorded: improve podocyte survival |  |  |  |  |  | improved KLF15 reporter activity | no observed toxicity | 
CSc1ccc(NC(=O)c2ccc(O)cc2)cc1 [BT501] | 35.5 10^−6 cm/s | 32.5 10^−6 cm/s | 66.7% | 35 10^−6 cm/s | 32.5 10^−6 cm/s | 81.7% | 0.987 | No (Significant Efflux: ER ≥ 2.0 and Papp (B-to-A) ≥ 1.0 × 10^−6 cm/s) | High (Papp (A-to-B) ≥ 1.0 × 10^−6 cm/s: High) | significantly reduced albuminuria | significantly induced KLF15 reporter activity | higher maximal KLF15 reporter activity | improve podocyte survival | significantly induced KLF15 promoter activity | synergistic effect | 100 | 88.4 | 92.1 |  | no observed toxicity | Percent Remaining 120 min [5]: 87.7; Solubility AVG [6, 8]: 97.7 µM (≈ 25.3 µg/mL); Solubility R1 [6, 8]: 99.7 µM (≈ 25.9 µg/mL); Solubility AVG [6, 9]: 153 µM (≈ 39.7 µg/mL); Solubility R1 [6, 9]: 157 µM (≈ 40.7 µg/mL); Solubility AVG [6, 10]: 269 µM (≈ 69.8 µg/mL); Solubility R1 [6, 10]: 279 µM (≈ 72.4 µg/mL); CLint (intrinsic clearance) (human liver microsomes; human, microsomes): 0.0387 mL/min/mg protein; Half-Life (human liver microsomes; human, microsomes): 35.8 min
